Measurements published in ChEMBL document CHEMBL1165907, “A comparative study of flavonoid analogues on streptozotocin-nicotinamide induced diabetic rats: quercetin as a potential antidiabetic agent acting via 11beta-hydroxysteroid dehydrogenase type 1 inhibition” (2010).

Legend:
Rattus norvegicus [1] = test: Antidiabetic activity in STZ-induced Wistar rat assessed as reduction in blood glucose level at 50 mg/kg, ig after 4 day relative to control; type: functional; design: scale not given: the % may be the effect or the level left; settings: route intragastric
Rattus norvegicus [2] = test: Antidiabetic activity in Wistar rat assessed as change in blood glucose level at 50 mg/kg, ig after 5 hrs (RVb = -1.17% +/- 8.77%); type: functional; settings: route intragastric
Rattus norvegicus [3] = test: Antidiabetic activity in Wistar rat assessed as change in blood glucose level at 50 mg/kg, ig after 3 hrs (RVb = -9.83 % +/- 5.67%); type: functional; settings: route intragastric
Rattus norvegicus [4] = test: Hypoglycemic activity in Wistar rat assessed as change in blood glucose level at 50 mg/kg, ig after 7 hrs (RVb = -3.59 +/- 2.65 %); type: functional; settings: route intragastric
Rattus norvegicus [5] = test: Antidiabetic activity in Wistar rat assessed as change in blood glucose level at 50 mg/kg, ig after 1 hr (RVb = 20.18 % +/- 8.49%); type: functional; settings: route intragastric
Rattus norvegicus [6] = test: Antidiabetic activity in STZ-induced Wistar rat assessed as reduction in blood glucose level at 50 mg/kg, ig after 5 day relative to control; type: functional; design: scale not given: the % may be the effect or the level left; settings: route intragastric
Rattus norvegicus [7] = test: Antidiabetic activity in Wistar rat assessed as change in blood glucose level at 50 mg/kg, ig after 7 hrs (RVb = -10.51% +/- 5.53%); type: functional; settings: route intragastric
[8] = molecular target: 11-beta-hydroxysteroid dehydrogenase 1 (Homo sapiens) (UniProt P28845); test: Inhibition of human 11beta HSD1 in HEK293 cells at 10 uM; type: cell-based
Sequence of 11-beta-hydroxysteroid dehydrogenase 1 (Homo sapiens) (P28845 whole entry, looked up): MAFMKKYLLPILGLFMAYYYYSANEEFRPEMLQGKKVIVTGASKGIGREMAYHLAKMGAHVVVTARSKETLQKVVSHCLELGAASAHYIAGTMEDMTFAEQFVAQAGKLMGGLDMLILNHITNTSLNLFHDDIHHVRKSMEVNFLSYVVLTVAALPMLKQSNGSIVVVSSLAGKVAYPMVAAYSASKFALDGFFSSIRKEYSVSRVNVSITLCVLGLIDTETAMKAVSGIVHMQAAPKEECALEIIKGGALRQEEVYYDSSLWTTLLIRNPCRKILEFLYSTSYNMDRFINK

Rattus norvegicus [9] = test: Antidiabetic activity in STZ-induced Wistar rat assessed as reduction in blood glucose level at 50 mg/kg, ig after 1 day relative to control; type: functional; design: scale not given: the % may be the effect or the level left; settings: route intragastric
Rattus norvegicus [10] = test: Hypoglycemic activity in Wistar rat assessed as change in blood glucose level at 50 mg/kg, ig after 1 hr (RVb = 10.96 +/- 3.67 %); type: functional; settings: route intragastric
Rattus norvegicus [11] = test: Antidiabetic activity in STZ-induced Wistar rat assessed as reduction in blood glucose level at 50 mg/kg, ig after 2 day relative to control; type: functional; design: scale not given: the % may be the effect or the level left; settings: route intragastric
Rattus norvegicus [12] = test: Hypoglycemic activity in Wistar rat assessed as change in blood glucose level at 50 mg/kg, ig after 5 hrs (RVb = 1.21+/- 3.64 %); type: functional; settings: route intragastric
Rattus norvegicus [13] = test: Antidiabetic activity in STZ-induced Wistar rat assessed as reduction in blood glucose level at 50 mg/kg, ig after 3 day relative to control; type: functional; design: scale not given: the % may be the effect or the level left; settings: route intragastric
Rattus norvegicus [14] = test: Hypoglycemic activity in Wistar rat assessed as change in blood glucose level at 50 mg/kg, ig after 3 hrs (RVb = 1.39 +/- 5.895 %); type: functional; settings: route intragastric

Row | SMILES | Activity (Rattus norvegicus [1]) [%] | Activity (Rattus norvegicus [2]) [%] | Activity (Rattus norvegicus [3]) [%] | Activity (Rattus norvegicus [4]) [%] | Activity (Rattus norvegicus [5]) [%] | Activity (Rattus norvegicus [6]) [%] | Activity (Rattus norvegicus [7]) [%] | inhibition [8] [%] | Activity (Rattus norvegicus [9]) [%] | Activity (Rattus norvegicus [10]) [%] | Activity (Rattus norvegicus [11]) [%] | Activity (Rattus norvegicus [12]) [%] | Activity (Rattus norvegicus [13]) [%] | Activity (Rattus norvegicus [14]) [%]
1 | O=c1cc(-c2ccccc2)oc2ccccc12 [FLAVONE] | 10.6 | -21.41 | -10.02 | -11.65 | 13.53 | 10.8 | -39.69 | 16 | 0.05 | -16.16 | 32.76 | -24.7 | 19.5 | -21.56
2 | O=c1c(O)c(-c2ccc(O)c(O)c2)oc2cc(O)cc(O)c12 [QUERCETIN] | 21.3 | -52.68 | -17.28 | -17.85 | -2.37 | 3.7 | -42.62 | 27 | 10.8 | -16.19 | 13.3 | -10.74 | 27 | -21.1
3 | COc1ccc(Cl)cc1C(=O)NCCc1ccc(S(=O)(=O)NC(=O)NC2CCCCC2)cc1 [GLYBURIDE] | 50 | -43.88 | -24.93 | -23.77 | -21.93 | 40 | -42.52 |  | 33.2 | -8.29 | 32.2 | -24.78 | 38.5 | -21.71
4 | O=c1cc(-c2ccccc2)oc2cc(O)cc(O)c12 [CHRYSIN] | 0.5 | -10.41 | -9.96 | -9.42 | -1.7 | 17.17 | -35.5 |  | 7.07 | -9.27 | 19.6 | -17.08 | 5.2 | -19.98
5 | O=c1cc(-c2ccccc2)oc2cc(O)ccc12 [7-HYDROXYFLAVONE] | 20.4 | -10.03 | -12.69 | -4.81 | -12.79 | 38.5 | -12.18 |  | 8.8 | 5.05 | 35.5 | 7.39 | 36 | -6.19
6 | O=c1c(O)c(-c2ccccc2)oc2ccccc12 [FLAVONOL] | 60.1 | -15.66 | -5.92 | -10.05 | 1.93 | 9.2 | -16.04 |  | 2.09 | -6.04 | 7.7 | -2.36 | 35.7 | -20.2
7 | O=c1cc(-c2ccccc2)oc2ccc(O)cc12 [6-HYDROXYFLAVONE] | 2.53 | -19.81 | -11.07 | -0.93 | -13.08 | 34.7 | -25.42 |  | 16.9 | -16.21 | 6.6 | 6.41 | 13.15 | 6.51
